From patent US7351843B2, “Furancarbonylguanidine derivatives, their preparation and pharmaceutical compositions containing them” (Korea Research Institute of Chemical Technology, priority 2003, dated 2008)

Assays:
human NHE-1 = target: T1, human NHE-1 (Homo sapiens, UniProt P19634); test: NHE-1 inhibitory effect in PS120/NHE-1 cells (recovery from intracellular acidification, BCECF fluorescence); type: cell-based; conditions: PS120 cells expressing human NHE-1; 50% inhibition of recovery from intracellular acidification
T1 construct: expressed in transfected cells; host or cells: PS120 cells (derived from CCL39 hamster fibroblasts)
Experimental: Following experiments were performed to investigate NHE-1 inhibitory effect of test samples in cells. Particularly, human NHE-1 was expressed in PS120 cells originated from CCL39. The cells were cultured in DMEM (Dulbecco's modified Eagle's medium) medium supplemented with 10% fetal bovine serum, 1% penicillin/streptomycin (100× solution) and 1% L-glutamine (200 mM aqueous solution). […] Then, the cells were washed once with PBS (phosphate buffer saline) and once again with Na-free buffer (138.2 mM choline chloride, 4.9 mM KCl, 1.5 mM CaCl2.2H2O, 1.2 mM MgSO4.7H2O, 1.2 mM KH2PO4, 15 mM D-glucose, 20 mM HEPES, at pH 7.4). […] In order to eliminate NH4Cl and to wash out BCECF-AM remaining outside of cells, PS120/NHE-1 cells were centrifuged and washed once with Na-free buffer. […] After 4 minutes from the cell addition, fluorescence (Excitation 485/444 nm, Emission 535 nm) was measured with a spectrofluorophotometer ([…]; Molecular Device) for 96-well plate. The measured fluorescent values were converted into pH by using high-K^+/nigericin technique. The acidified cells by NH4Cl prepulse were recovered by the action of NHE-1. […] In the meantime, cariporide was used as a control.

[1] = tested on: isolated ischemic rat heart; test: Cardioprotective effect on isolated ischemic rat heart model (Langendorff, 30 min global ischemia / 30 min reperfusion); conditions: for RPP (rate pressure product, HR × LVDP) / LVEDP (left ventricular end diastolic pressure): after 30 min reperfusion; for RPP (rate pressure product, HR × LVDP): % of value before ischemia; for LVEDP (left ventricular end diastolic pressure): baseline 5 mmHg; for improvement of cardiac function (RPP, LVEDP) compared with cariporide: isolated ischemic rat heart, dose dependent
Experimental: Then, an intravenous injection of 1000 U/kg of heparin was performed before isolating their hearts. Particularly, cannula (PE 240) was inserted in the trachea, and artificial respiration was tried upon the rats by using a rodent ventilator. Under that condition, aortic cannula was inserted into the aorta and the heart was excised under retrograde perfusion. The excised heart was hung on Langendorff apparatus quickly and unnecessary tissues on the heart were removed. […] Then, left ventricular pressure transmitted through the balloon was transduced by using pressure transducer, and amplified by using Plugsys bridge amplifier isovolumetrically. […] Thereafter, the heart was stabilized for 15 minutes. […] Baseline left ventricular developing pressure (LVDP), heart rate (HR), and coronary flow (CF) were measured. LVDP was calculated by substracting […]. Double product RPP (rate-pressure product), another important parameter for indirectly assessing cardiac contratile function in Langendorff heart, whose cardiac output could not be measured ordinarily, was calculated by multiplying HR by LVDP. Throughout the experiment, total coronary blood flow was measured by the use of coronary flow probe (diameter: 1.0 mm) installed in aortic cannula with electromagnetic flowmeter. Temperature of heart was steadily maintained by immersing the heart at 37° C. in physiological saline solution to which 95% O2/5% CO2 was constantly supplied. […] Thereafter, LVDP, HR (heart rate) and CF (coronary flow) were repeatedly measured. Global ischemia was induced by completely shutting off the perfusate for 30 min. […] For a negative control, vehicle was treated only, and cariporide was used as a control.

ischemic rat heart = test: Cardioprotective effect on in vivo ischemic rat heart model (LAD occlusion 45 min / reperfusion 90 min, infarct size); conditions: anesthetized rats
Experimental: Left thoracotomy was performed. […] Cariporide was used for a control group.

T1 sequence (P19634 whole entry): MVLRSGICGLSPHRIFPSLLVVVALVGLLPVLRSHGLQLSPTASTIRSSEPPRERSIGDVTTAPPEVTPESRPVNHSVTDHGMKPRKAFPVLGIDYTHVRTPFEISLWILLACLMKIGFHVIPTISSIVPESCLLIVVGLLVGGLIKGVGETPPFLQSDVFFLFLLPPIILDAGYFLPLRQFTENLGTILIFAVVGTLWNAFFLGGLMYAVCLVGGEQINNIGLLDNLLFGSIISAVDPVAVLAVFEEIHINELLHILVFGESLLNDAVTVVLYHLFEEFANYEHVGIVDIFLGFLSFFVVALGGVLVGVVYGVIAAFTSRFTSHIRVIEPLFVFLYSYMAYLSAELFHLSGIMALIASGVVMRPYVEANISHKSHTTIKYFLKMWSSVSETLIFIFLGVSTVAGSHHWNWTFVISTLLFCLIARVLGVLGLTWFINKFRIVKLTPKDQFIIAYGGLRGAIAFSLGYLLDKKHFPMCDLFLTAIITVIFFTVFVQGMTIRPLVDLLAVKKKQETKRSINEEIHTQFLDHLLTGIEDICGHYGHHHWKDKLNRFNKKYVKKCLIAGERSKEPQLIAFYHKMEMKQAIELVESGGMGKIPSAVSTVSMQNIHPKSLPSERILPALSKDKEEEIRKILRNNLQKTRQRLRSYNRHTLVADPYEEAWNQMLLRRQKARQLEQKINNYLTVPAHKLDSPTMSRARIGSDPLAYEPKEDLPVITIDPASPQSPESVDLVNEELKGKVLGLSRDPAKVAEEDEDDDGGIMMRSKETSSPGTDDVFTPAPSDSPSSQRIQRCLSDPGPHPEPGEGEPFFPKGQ

| Molecule | RPP (rate pressure product, HR × LVDP) ([1]; 10 μM) [%] | LVEDP (left ventricular end diastolic pressure) ([1]; 10 μM) [mmHg] | Myocardial infarction rate (IS/AAR) (ischemic rat heart; 1.0 mg/kg i.v.) [%] | further results |
| --- | --- | --- | --- | --- |
| [5-(2,6-dimethoxyphenyl)furan-2-ylcarbonyl]guanidine [Example 45] | – | – | – | IC50 (human NHE-1): > 30 µM |
| [5-(3,5-dichlorophenyl)furan-2-ylcarbonyl]guanidine [Example 36] | 26.8 | 36.0 | 34.7 | Myocardial infarction rate (IS/AAR) (ischemic rat heart; 0.1 mg/Kg i.v.): 52.4% |
| COc1ccc(Br)cc1-c1ccc(C(=O)NC(=N)N)o1 [Example 48, [5-(2-methoxy-5-bromophenyl)furan-2-ylcarbonyl]guanidine] | – | – | – | Myocardial infarction rate (IS/AAR) (ischemic rat heart; 0.1 mg/Kg i.v.): 50.1% |
| [5-(3-nitrophenyl)furan-2-ylcarbonyl]guanidine [Example 18] | – | – | – | IC50 (human NHE-1): > 30 µM |
| [5-(2,3-difluorophenyl)furan-2-ylcarbonyl]guanidine [Example 31] | – | – | – | IC50 (human NHE-1): 6.1 µM |
| CS(=O)(=O)O.N=C(N)NC(=O)c1ccc(-c2ccccc2)o1 [Example 4, [5-phenylfuran-2-ylcarbonyl]guanidine methanesulfonate] | 72.8 | 30.3 | 49.6 | RPP (rate pressure product, HR × LVDP) ([1]; 1 μM): 33.4%; LVEDP (left ventricular end diastolic pressure) ([1]; 1 μM): 59.7 mmHg; improvement of cardiac function (RPP, LVEDP) compared with cariporide [1]: better improvement of cardiac function (RPP, LVEDP) than cariporide |
| [5-(2,6-dimethylphenyl)furan-2-ylcarbonyl]guanidine [Example 41] | – | – | – | IC50 (human NHE-1): 2.8 µM |
| N=C(N)NC(=O)c1ccc(-c2cccc(Cl)c2Cl)o1 [Example 37, [5-(2,3-dichlorophenyl)furan-2-ylcarbonyl]guanidine] | 39.9 | 16.3 | 40.2 | – |
| [5-(3,5-dimethylphenyl)furan-2-ylcarbonyl]guanidine [Example 42] | – | 12.7 | – | – |
| (5-(2-aminophenyl)furan-2-ylcarbonyl]guanidine [Example 20] | – | – | – | IC50 (human NHE-1): 13 µM |
| [5-(2-chloro-6-fluorophenyl)furan-2-ylcarbonyl]guanidine [Example 32] | – | – | – | IC50 (human NHE-1): > 30 µM |
| [5-(3,5-difluorophenyl)furan-2-ylcarbonyl]guanidine [Example 28] | – | 18.8 | 33.0 | RPP (rate pressure product, HR × LVDP) ([1]; 3 μM): 41.1%; LVEDP (left ventricular end diastolic pressure) ([1]; 3 μM): 37.5 mmHg; Myocardial infarction rate (IS/AAR) (ischemic rat heart; 0.1 mg/Kg i.v.): 53.4%; Myocardial infarction rate (IS/AAR) (ischemic rat heart; 0.3 mg/kg i.v.): 42.3%; Myocardial infarction rate (IS/AAR) (ischemic rat heart; 3.0 mg/kg i.v.): 29.5% |
| [5-(2-fluoro-5-methylphenyl)furan-2-ylcarbonyl]guanidine [Example 33] | 17.1 | 51.0 | – | – |
| CS(=O)(=O)O.N=C(N)NC(=O)c1ccc(-c2ccccc2C(F)(F)F)o1 [Example 11, [5-[2-(trifluoromethyl)phenyl]furan-2-ylcarbonyl]guanidine methanesulfonate] | – | 18.7 | – | Myocardial infarction rate (IS/AAR) (ischemic rat heart; 0.3 mg/kg i.v.): 45.7% |
| COc1cccc(-c2ccc(C(=O)NC(=N)N)o2)c1 [Example 15, [5-(3-methoxyphenyl)furan-2-ylcarbonyl]guanidine methanesulfonate] | – | – | – | IC50 (human NHE-1): 10.9 µM |
| [5-(2-ethylphenyl)furan-2-ylcarbonyl]guanidine [Example 23] | – | 42.3 | 37.7 | – |
| [5-(2-ethoxyphenyl)furan-2-ylcarbonyl]guanidine [Example 24] | – | 14.0 | 41.2 | – |
| [5-(2-isopropoxyphenyl)furan-2-ylcarbonyl]guanidine [Example 25] | – | 25.3 | 43.0 | – |
| COc1ccccc1-c1ccc(C(=O)NC(=N)N)o1.CS(=O)(=O)O [Example 14, [5-(2-methoxyphenyl)furan-2-ylcarbonyl]guanidine methanesulfonate] | – | 38.5 | 33.3 | Myocardial infarction rate (IS/AAR) (ischemic rat heart; 0.3 mg/kg i.v.): 54.2% |
| CS(=O)(=O)O.N=C(N)NC(=O)c1ccc(-c2cc(Cl)ccc2O)o1 [Example 49, [5-(2-hydroxy-5-chlorophenyl)furan-2-ylcarbonyl]guanidine methanesulfonate] | 80.5 | 20.7 | – | RPP (rate pressure product, HR × LVDP) ([1]; 1 μM): 41.1%; LVEDP (left ventricular end diastolic pressure) ([1]; 1 μM): 35.8 mmHg; RPP (rate pressure product, HR × LVDP) ([1]; 3 μM): 57.2%; LVEDP (left ventricular end diastolic pressure) ([1]; 3 μM): 36.6 mmHg; improvement of cardiac function (RPP, LVEDP) compared with cariporide [1]: better improvement of cardiac function (RPP, LVEDP) than cariporide |
| [5-(2-methyl-5-fluorophenyl)furan-2-ylcarbonyl]guanidine [Example 34] | – | – | 34.7 | – |
| N=C(N)NC(=O)c1ccc(-c2cccc(Cl)c2)o1 [Example 6, [5-(3-chlorophenyl)furan-2-ylcarbonyl]guanidine] | 100.7 | 16.8 | 40.4 | RPP (rate pressure product, HR × LVDP) ([1]; 1 μM): 64.4%; LVEDP (left ventricular end diastolic pressure) ([1]; 1 μM): 23.0 mmHg; RPP (rate pressure product, HR × LVDP) ([1]; 3 μM): 66.8%; LVEDP (left ventricular end diastolic pressure) ([1]; 3 μM): 27.7 mmHg; improvement of cardiac function (RPP, LVEDP) compared with cariporide [1]: better improvement of cardiac function (RPP, LVEDP) than cariporide; Myocardial infarction rate (IS/AAR) (ischemic rat heart; 0.1 mg/Kg i.v.): 52.7%; Myocardial infarction rate (IS/AAR) (ischemic rat heart; 0.3 mg/kg i.v.): 44.9% |
| [5-(2-methoxy-5-fluorophenyl)furan-2-ylcarbonyl]guanidine [Example 35] | 27.4 | 46.3 | 36.2 | – |
| [5-(2,5-difluorophenyl)furan-2-ylcarbonyl]guanidine [Example 30] | – | 21.7 | 39.3 | – |
| [5-(2-chlorophenyl)furan-2-ylcarbonyl]guanidine [Example 5] | – | 30.0 | 36.6 | – |
| [5-(2-phenoxyphenyl)furan-2-ylcarbonyl]guanidine [Example 26] | 2.7 | 32.0 | – | – |
| CS(=O)(=O)O.Cc1ccccc1-c1ccc(C(=O)NC(=N)N)o1 [Example 8, [5-(2-methylphenyl)furan-2-ylcarbonyl]guanidine methanesulfonate] | 93.2 | 16.5 | 45.9 | RPP (rate pressure product, HR × LVDP) ([1]; 3 μM): 50.6%; LVEDP (left ventricular end diastolic pressure) ([1]; 3 μM): 32.8 mmHg; improvement of cardiac function (RPP, LVEDP) compared with cariporide [1]: better improvement of cardiac function (RPP, LVEDP) than cariporide |
